Reference: the supplement of paper PMC9938120

Key:
Assay in all cases: drug sensitivity score (DSS3, normalised partial AUC of % inhibition dose-response) (DSS (score)); higher = more sensitive (stronger inhibition of viability); extreme values may be limits of the assay
FMOC02_2 = patient-derived low-grade serous ovarian cancer cells; conditions: 72 h; library: FO5A; assay format: 2D, 384-well, CellTiter-Glo
In short: (§1)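 Cells were dispensed onto 384-well flat clear-bottom plates already holding compounds at five concentrations over a 10,000-fold range, using patient-derived ovarian cancer cells at passage under 10. Incubation lasted 72 h at 37 °C in 5% CO2, after which CellTiter-Glo viability data were processed in Breeze. Higher drug sensitivity scores, each a partial area under the percent-inhibition dose-response curve divided by the log of the upper asymptote, mean more sensitive cells.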

FMOC02_3 = patient-derived low-grade serous ovarian cancer cells; conditions: 72 h; library: FO5A; assay format: 2D, 384-well, CellTiter-Glo
In short: as §1

FMOC03 = patient-derived mucinous ovarian cancer cells; conditions: 72 h; library: FO5A; assay format: 2D, 384-well, CellTiter-Glo
In short: as §1

FMOC06 = patient-derived mucinous ovarian cancer cells; conditions: 72 h; library: FO5A; assay format: 2D, 384-well, CellTiter-Glo
In short: as §1

FMOC09 = patient-derived high-grade serous ovarian cancer cells; conditions: 72 h; library: FO5A; assay format: 2D, 384-well, CellTiter-Glo
In short: as §1

FMOC14 = patient-derived high-grade serous ovarian cancer cells; conditions: 72 h; library: FO5A; assay format: 2D, 384-well, CellTiter-Glo
In short: as §1

FMOC22 = patient-derived mucinous ovarian cancer cells; conditions: 72 h; library: FO5A; assay format: 2D, 384-well, CellTiter-Glo
In short: as §1

FMOC24 = patient-derived high-grade serous ovarian cancer cells; conditions: 72 h; library: FO5A; assay format: 2D, 384-well, CellTiter-Glo
In short: as §1

FMOC25_1 = patient-derived low-grade serous ovarian cancer cells; conditions: 72 h; library: FO4B; assay format: 2D, 384-well, CellTiter-Glo
In short: as §1

FMOC25_2 = patient-derived low-grade serous ovarian cancer cells; conditions: 72 h; library: FO5A; assay format: 2D, 384-well, CellTiter-Glo
In short: as §1

SMILES | drug sensitivity score (FMOC02_2) | drug sensitivity score (FMOC02_3) | drug sensitivity score (FMOC03) | drug sensitivity score (FMOC06) | drug sensitivity score (FMOC09) | drug sensitivity score (FMOC14) | drug sensitivity score (FMOC22) | drug sensitivity score (FMOC24) | drug sensitivity score (FMOC25_1) | drug sensitivity score (FMOC25_2)
O=C(c1ccc(F)c(F)c1Nc1ccc(I)cc1F)N1CC(O)([C@@H]2CCCCN2)C1 [Cobimetinib] | 13.3 | 13.7 | 10.3 | 9 | 6.1 | 0.1 | 7.5 | 1.8 | 10 | 9.2
COc1c(OCCCN2CCOCC2)ccc2c1N=C(NC(=O)c1cnc(N)nc1)N1CCN=C21 [Copanlisib] | 17.4 | 19.6 | 8.5 | 12.8 | 10.5 | 6.6 | 5.2 | 3.1 | 11.7 | 16.8
CC1(COc2ccc3c(c2)ncn3-c2ccc3cccc(N4CCC(N)CC4)c3n2)COC1 [Crenolanib] | 6.1 | 4.6 | 4.4 | 4.4 | 3 | 4.4 | 5 | 9.25 | 4.3 | 4.8
Nc1ccn([C@@H]2O[C@H](CO)[C@@H](O)[C@@H]2O)c(=O)n1 [Cytarabine] | 8.3 | 9.3 | 2.3 | 2.4 | 6.9 | 0 | 6.4 | 0.6 | 3.4 | 6.3
COc1cc2ncnc(Nc3ccc(F)c(Cl)c3)c2cc1NC(=O)/C=C/CN1CCCCC1 [Dacomitinib] | 20.4 | 18 | 18.2 | 5.5 | 16.1 | 4.6 | 1.7 | 0.3 | 7.8 | 18.6
Cc1c2oc3c(C)ccc(C(=O)N[C@@H]4C(=O)N[C@H](C(C)C)C(=O)N5CCC[C@H]5C(=O)N(C)CC(=O)N(C)[C@@H](C(C)C)C(=O)O[C@@H]4C)c3nc-2c(C(=O)N[C@@H]2C(=O)N[C@H](C(C)C)C(=O)N3CCC[C@H]3C(=O)N(C)CC(=O)N(C)[C@@H](C(C)C)C(=O)O[C@@H]2C)c(N)c1=O [Dactinomycin] | 22.1 | 27.2 | 21.7 | 22.9 | 16.7 | 21.7 | 21.5 | 23.2 | 23.3 | 28.8
Cn1c(=O)n(-c2ccc(C(C)(C)C#N)cc2)c2c3cc(-c4cnc5ccccc5c4)ccc3ncc21 [Dactolisib] | 22.1 | 23 | 16.2 | 15.6 | 14.4 | 13.1 | 13 | 11.1 | 22.7 | 23.2
CO[C@@H](C(=O)N1Cc2[nH]nc(NC(=O)c3ccc(N4CCN(C)CC4)cc3)c2C1)c1ccccc1 [Danusertib] | 5.7 | 10.1 | 4.7 | 4.7 | 8.7 | 1.4 | 0 | 4.3 | 3.1 | 8
Cc1nc(Nc2ncc(C(=O)Nc3c(C)cccc3Cl)s2)cc(N2CCN(CCO)CC2)n1 [Dasatinib] | 19.9 | 20.4 | 8.4 | 5 | 17.1 | 5.1 | 0 | 4.5 | 2.8 | 7.7
COc1cccc2c1C(=O)c1c(O)c3c(c(O)c1C2=O)C[C@@](O)(C(C)=O)C[C@@H]3O[C@H]1C[C@H](N)[C@H](O)[C@H](C)O1 [Daunorubicin] | 6.7 | 9.7 | 4.6 | 6.4 | 6.4 | 5.8 | 4.9 | 7.6 | 10.1 | 7.7
CCc1cnn2c(NCc3ccc[n+]([O-])c3)cc(N3CCCC[C@H]3CCO)nc12 [Dinaciclib] | 22.1 | 25 | 16.4 | 20.2 | 10.3 | 18.5 | 13.1 | 18.8 | 17.6 | 28.3
CC(=O)O[C@@]12CO[C@@H]1C[C@H](O)[C@@]1(C)C(=O)[C@H](O)C3=C(C)[C@@H](OC(=O)[C@H](O)[C@@H](NC(=O)OC(C)(C)C)c4ccccc4)C[C@@](O)([C@@H](OC(=O)c4ccccc4)[C@H]21)C3(C)C [Docetaxel] | 10.8 | 15.5 | 11.7 | 9.1 | 13.9 | 0 | 12.4 | 0.6 | 12.1 | 15.5
COc1cccc2c1C(=O)c1c(O)c3c(c(O)c1C2=O)C[C@@](O)(C(=O)CO)C[C@@H]3O[C@H]1C[C@H](N)[C@H](O)[C@H](C)O1 [Doxorubicin] | 2.9 | 7.2 | 2.6 | 4.3 | 6.5 | 3.6 | 4.5 | 5.65 | 7.7 | 8
Cc1cc(Nc2cc(N3CCN(C)CC3)nc(/C=C/c3ccccc3)n2)n[nH]1 [ENMD-2076] | 11.5 | 13.7 | 6.2 | 6.7 | 8.6 | 5.2 | 4.1 | 4.95 | 6.1 | 10.5
Nc1ccccc1NC(=O)c1ccc(CNC(=O)OCc2cccnc2)cc1 [Entinostat] | 8.6 | 7.5 | 8.2 | 7.6 | 1.6 | 8.6 | 5 | 8.4 | 4.3 | 3.7
C#Cc1cccc(Nc2ncnc3cc(OCCOC)c(OCCOC)cc23)c1 [Erlotinib] | 15.7 | 15.1 | 14.7 | 3 | 11 | 3.7 | 1.8 | 3.6 | 11.7 | 14.1
